“And” between values parts separate entries of the source, which are not always exact repeats. Identical values can stand only once. Like-named read-outs stand apart in the source and are kept apart here.
Columns and labels:
HRV3 = experiment: Multiple rounds of replication; assay type: cell-based, human rhinovirus; details: 2 μM added four hours post-attachment
Protocol: The next experiments were designed to answer the question as to whether the addition of pleconaril after the uncoating stage could affect the ability of progeny virions to initiate subsequent rounds of replication, i.e. reduce the infectivity of progeny virions. Cells were infected with HRV3 at a low MOI (0.01 pfu/cell) at room temperature. After removal of unattached virus, fresh medium was added and the cells were shifted to the higher temperature to allow uncoating to proceed. Four hours post-attachment, pleconaril or DMSO alone was added to the cultures, and plates were frozen at 12 hours (upon completion of a single cycle of replication) and 24 hours (upon completion of a second round of replication) post-infection. Virus yield from both rounds of replication was determined in the viral cytopathic effect assay.
HeLa cells in 6 well plates were infected with HRV3 at an MOI of 0.001 or 0.01 pfu/cell for 1 hour at room temperature in duplicate. The virus inoculum was then removed and the monolayers washed twice with DPBS. The cells were overlaid with 3 mL of M199 medium with 5% FBS and placed at 33° C. (HRV3). After 4 hrs, half of the wells received pleconaril to a final concentration of 2 μM in 0.5% DMSO, and half received DMSO alone. […] Virus yield was determined in the cytopathic effect assay after 2 cycles of chloroform extraction.

HRV serotype 93 = experiment: HRV cytopathic effect assay; assay type: cell-based; details: Human rhinovirus sp.
Protocol: (§1) For sensitivity testing to pleconaril, the appropriate cells were seeded into 96 well plates at a concentration of 4×10^4/well. After an overnight incubation at 37° C., the medium was removed and the cells were infected with 150 μL of a dilution of virus previously titrated to give ≧85% lysis of the monolayer after 3 days of incubation. The plates were incubated for 1 hour at the appropriate temperature and then overlaid with 50 μL of medium containing serial 2-fold dilutions of pleconaril in 2% DMSO. The final DMSO concentration in the assay was always 0.5%. No virus and no pleconaril controls were included on each plate. All drug concentrations were run in quadruplicate. The plates were then incubated for 3 days at the appropriate temperature followed by processing as described above.

HRV serotype 5 = experiment: HRV cytopathic effect assay; assay type: cell-based; details: Human rhinovirus sp.
Protocol: as §1

HRV serotype 92 = experiment: HRV cytopathic effect assay; assay type: cell-based; details: Human rhinovirus sp.
Protocol: as §1

HRV serotype 84 = experiment: HRV cytopathic effect assay; assay type: cell-based; details: Human rhinovirus sp.
Protocol: as §1

HRV serotype 13 = experiment: HRV cytopathic effect assay; assay type: cell-based; details: Human rhinovirus sp.
Protocol: as §1

HRV serotype 9 = experiment: HRV cytopathic effect assay; assay type: cell-based; details: Human rhinovirus sp.
Protocol: as §1

HRV serotype 19 = experiment: HRV cytopathic effect assay; assay type: cell-based; details: Human rhinovirus sp.
Protocol: as §1

HRV serotype 79 = experiment: HRV cytopathic effect assay; assay type: cell-based; details: Human rhinovirus sp.
Protocol: as §1

HRV serotype 66 = experiment: HRV cytopathic effect assay; assay type: cell-based; details: Human rhinovirus sp.
Protocol: as §1

HRV serotype 94 = experiment: HRV cytopathic effect assay; assay type: cell-based; details: Human rhinovirus sp.
Protocol: as §1

[1] = Repeated dose pharmacokinetics, clinical dosing regimen; assay type: in vivo, human; details: 400 mg TID for 5 days
Protocol: Plasma accumulation of pleconaril was modest (approximately two fold) when pleconaril was administered according to the clinical dosing regimen (400 mg TID for 5 days). The long terminal half-life had only a modest influence on pleconaril plasma concentration-time profiles for the clinical dosing regimen. The repeated dose pharmacokinetic profile of pleconaril was predictable from single dose data and, thus, the pharmacokinetic profile of pleconaril was time independent (FIG. 2).

[2] = Single dose oral pharmacokinetics in fed healthy young subjects; assay type: in vivo, human; details: for half-life: po, 400 mg
[3] = Pleconaril concentration in nasal mucus, clinical studies 843-043 and 843-044; details: diluted samples, individual subjects
Protocol: Two hundred (200) μl of acetonitrile was added to 200 μl of each nasal mucus standard and sample. The samples and standards were vortex mixed and then centrifuged at 25° C. for 10 minutes at 2500 rpm. 170 μl of supernatant was removed from each standard and sample. Then, 30 μl of water was added. The mixture was vortex mixed and 40 μl was injected for quantitative analysis of pleconaril.
Standards and samples were analyzed via LC/MS/MS. • Mass Spec: Micromass Quattro • LC: Alliance 2790 • Mobile Phase: 85% Acetonitrile/15% 2 mM Ammonium Acetate (0.2% formic acid) • Flow Rate: 0.5 ml/min • Analytical Column: Luna C18 (2) 5μ, 50×3.00 mm (Phenomenex) • Source: ESI (Electrospray Ionization) • Ion Mode: Positive • MRM transition: 382>82
The Masslyns quantitation package was used to analyze the results. The method used was a linear (1/× weighted) external standard method of calibration.
Studies 843-043 and 843-044 were Phase III clinical trials for the acute treatment of viral respiratory infection (common cold) in which pleconaril was administered for five days (400 mg TID). These samples were selected based on the plasma concentrations measured on Day 3 of 6 (plasma concentrations at or above 1 μg/ml).
Nasal mucus samples were diluted with 2 ml of transport media during processing and prior to quantitative analysis.

HRV-14 = experiment: Attachment inhibition, 35S-radiolabeled virus; assay type: cell-based, human rhinovirus; details: HRV-14, ICAM-1 receptor, FIG. 5
Protocol: (§2) The ability of pleconaril to affect the attachment to cells of several HRV serotypes was examined. ^35S-radiolabeled virus was incubated with susceptible cells for 1 hour in the presence of various concentrations of pleconaril. Cell-associated virus was quantified by direct scintillation counting of cell lysates after removal of unbound virus.
(§3) ^35S-radiolabeled virus was preincubated with various concentrations of pleconaril or 0.5% DMSO alone for 1 hour at room temperature. Cells in 6 well plates were inoculated with 20,000 cpm of ^35S-radiolabeled virus/well in 0.5 mL of M199 medium with 5% FBS. Attachment was allowed to proceed for 1 hour at 33° C., at which time the inoculum was removed and the cells washed with 2 mL of medium. The cells were then lysed by a 15 minute incubation on ice in the presence of 250 μL/well of a solution containing detergent 1% Nonident P40 (NP40) and 20 mM chelator, ethylene diamine tetraacetic acid (EDTA) in water. Cell-associated radioactivity was quantified by liquid scintillation spectroscopy in a Wallac Model 1409 Liquid Scintillation Counter (Wallac Oy, Turku, Finland).

HRV-3 = experiment: Attachment inhibition, 35S-radiolabeled virus; assay type: cell-based, human rhinovirus; details: HRV-3, ICAM-1 receptor, FIG. 5
Protocol: as §2, §3

HRV-2 = experiment: Attachment inhibition, 35S-radiolabeled virus; assay type: cell-based, human rhinovirus; details: HRV-2, LDL receptor, HeLa cells
Protocol: as §2, §3

HRV-50 = experiment: Attachment inhibition, 35S-radiolabeled virus; assay type: cell-based, human rhinovirus; details: HRV-50, ICAM-1 receptor, FIG. 5
Protocol: as §2, §3

HRV-89 = experiment: Attachment inhibition, 35S-radiolabeled virus; assay type: cell-based, human rhinovirus; details: HRV-89, ICAM-1 receptor, FIG. 5
Protocol: as §2, §3

HRV-1A = experiment: Attachment inhibition, 35S-radiolabeled virus; assay type: cell-based, human rhinovirus; details: LDL receptor, HeLa cells
Protocol: as §2, §3

[4] = human, plasma, fed healthy young subjects (N = 24), single oral dose 400 mg, mean

With `Cc1cc(CCCOc2c(C)cc(-c3noc(C(F)(F)F)n3)cc2C)on1` [pleconaril, 3-[3,5-dimethyl-4-[3-(3-methyl-5-isoxazolyl)propoxy]phenyl]-5-(trifluoromethyl)-1,2,4-oxadiazole] the “yield of progeny virions from the first round of virus replication” value (HRV3; 12 hours) was “little effect”, the “second round of replication” value (HRV3; 24 hours) was “completely prevented” and the IC50 (HRV serotype 93) was > 12500 nM. The IC50 (HRV serotype 5) was > 12500 nM, the IC50 (HRV serotype 92) was 20 ± 10 nM and the IC50 (HRV serotype 84) was > 12500 nM. For the same compound, the IC50 (HRV serotype 13) was 580 ± 130 nM, the IC50 (HRV serotype 9) was 220 ± 80 nM and the IC50 (HRV serotype 19) was 200 ± 10 nM. For the same compound, the IC50 (HRV serotype 79) was 40 ± 60 nM, the IC50 (HRV serotype 66) was 110 ± 70 nM and the IC50 (HRV serotype 94) was 1100 ± 440 nM. For the same compound, the plasma accumulation [1] was “approximately two”, the CL/F ([2]; fed healthy young subjects (N = 24), single oral dose 400 mg, mean) was 16.8 L/h and the alpha half-life ([2]; following oral absorption, alpha disposition phase) was ~2.8 h. For the same compound, the half-life ([2]; human, plasma, fed healthy young subjects (N = 24), single oral dose 400 mg, mean, read-out: T1/2 (converted)) was 186 h, the half-life ([2]; human, plasma, following oral absorption, alpha disposition phase, read-out: alpha half-life) was 2 to 3 h and the half-life ([2]; human, plasma, following oral absorption, read-out: terminal half-life (converted)) was ~180 h. The AUC(0-inf) [2, 4] was 29200 ng·h/mL, the Cmax [2, 4] was 2300 ng/mL and the Tmax [2, 4] was 3 h. For the same compound, the Vd/F ([2]; human, plasma, fed healthy young subjects (N = 24), single oral dose 400 mg, mean, read-out: Vz/F) was 4110 L, the “Pleconaril Concentration (Nasal Mucus)” value ([3]; Study 43, Day 3, 400 mg TID for five days) was 26.36 ng/mL and 10.22 ng/mL and 2.46 ng/mL and 1.20 ng/mL and the “Pleconaril Concentration (Nasal Mucus)” value ([3]; Study 43, Day 6, 400 mg TID for five days) was “BQL and 2.21 ng/ml and 33.93 ng/ml and 79.38 ng/ml”. The “Pleconaril Concentration (Nasal Mucus)” value ([3]; Study 44, Day 3, 400 mg TID for five days) was “BQL and 23.88 ng/ml and 2.51 ng/ml and 6.98 ng/ml”, the “Pleconaril Concentration (Nasal Mucus)” value ([3]; Study 44, Day 6, 400 mg TID for five days) was 1.77 ng/mL and 2.43 ng/mL and the concentration at 6 day ([3]; human, nasal mucus, oral, 400 mg TID, Pleconaril Concentration (Nasal Mucus), Study 44, Day 6, 400 mg TID for five days) was 1.68 ng/mL. For the same compound, the “attachment of virus to cells” value (HRV-14) was “inhibited”, the “attachment of virus to cells” value (HRV-3) was “inhibited” and the “attachment of virus to cells” value (HRV-2) was “able to bind to HeLa cells normally”. The “attachment of virus to cells” value (HRV-50) was “inhibited”, the “attachment of virus to cells” value (HRV-89) was “inhibited” and the “attachment of virus to cells” value (HRV-1A) was “able to bind to HeLa cells normally”.
